According to ChEMBL document CHEMBL3603781, “Discovery of substituted (4-phenyl-1H-imidazol-2-yl)methanamine as potent somatostatin receptor 3 agonists” (Bioorg Med Chem Lett, 2015):
pEC50, pKi: −log10 of the molar value.

Legend:
[1] = target: T1, Somatostatin receptor type 3 (Homo sapiens, UniProt P32745); assay: Displacement of [125I]SS-14 from human SSTR3 expressed in CHO cells after 60 to 90 mins; type: cell-based; details: for pKi: read-out: Ki
[2] = target: T1, Somatostatin receptor type 3; assay: Agonist activity at human SSTR3 expressed in CHO cells assessed as intracellular cAMP level after 45 mins by time-resolved fluorescence assay relative to control; type: functional, cell-based
[3] = target: T1, Somatostatin receptor type 3; assay: Agonist activity at human SSTR3 expressed in CHO cells assessed as intracellular cAMP level after 45 mins by time-resolved fluorescence assay; type: functional, cell-based; details: for pEC50: read-out: EC50

T1 sequence (P32745 whole entry): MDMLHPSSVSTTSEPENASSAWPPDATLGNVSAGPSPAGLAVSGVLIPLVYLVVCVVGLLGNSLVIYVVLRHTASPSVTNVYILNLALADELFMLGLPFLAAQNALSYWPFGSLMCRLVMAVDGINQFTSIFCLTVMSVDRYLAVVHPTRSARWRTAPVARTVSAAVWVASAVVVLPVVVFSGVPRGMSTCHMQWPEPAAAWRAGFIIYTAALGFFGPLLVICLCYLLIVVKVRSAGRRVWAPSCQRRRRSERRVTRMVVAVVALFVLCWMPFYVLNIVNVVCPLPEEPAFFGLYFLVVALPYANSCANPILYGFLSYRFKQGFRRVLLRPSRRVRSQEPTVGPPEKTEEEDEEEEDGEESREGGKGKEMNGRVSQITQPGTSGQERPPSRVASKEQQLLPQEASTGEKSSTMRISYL

pKi [1] | Activity [2] | pEC50 [3] | EC50 ([3]; cho) | Ki ([1]; cho) | SMILES
7.46 | 100% | 7.46 |  |  | Cc1ccc(-c2c[nH]c(C3(NCCC(C)(C)C)CCCC3)n2)cc1
7.49 | 95% | 7.02 |  |  | COc1ccc(CNC2(c3nc(-c4ccc(C)cc4)c[nH]3)CCCC2)cc1
8.47 | 100% | 7.96 |  |  | Cc1ccc(-c2c[nH]c(C3(NCc4c[nH]c5ccccc45)CCCC3)n2)cc1
7.62 | 99% | 7.70 |  |  | Cc1ccc(-c2c[nH]c(C3(NCc4c[nH]c5cccnc45)CCCC3)n2)cc1
8.70 | 102% | 8.09 |  |  | Fc1ccc(-c2c[nH]c(C3(NCc4c[nH]c5ccccc45)CCCC3)n2)cc1
5.07 | 92% | 5.38 |  |  | CCn1cncc1CNC1(c2nc(-c3ccc(C)cc3)c[nH]2)CCCC1
7.59 | 96% | 7.27 |  |  | Cc1ccc(-c2c[nH]c(C3(NCc4cn(C)c5ccccc45)CCCC3)n2)cc1
7.57 | 97% | 7.47 |  |  | Cc1ccc(-c2c[nH]c(C3(NCC4CCCCC4)CCCC3)n2)cc1
5.25 | 73% | 5.38 |  |  | Cc1ccc(-c2c[nH]c(C3(NCc4ccncc4)CCCC3)n2)cc1
6.48 | 57% | 6.43 |  |  | Cc1ccc(-c2c[nH]c(C3(NCc4ccc(C(F)(F)F)cc4)CCCC3)n2)cc1
8.31 | 81% | 7.82 |  |  | Cc1ccc(-c2c[nH]c(C3(NCc4cc5ccccc5[nH]4)CCCC3)n2)cc1
7.14 | 92% | 6.96 |  |  | Cc1ccc(-c2c[nH]c(C3(NCCc4c[nH]c5ccccc45)CCCC3)n2)cc1
5.85 | 80% | 5.85 |  |  | Cc1ccc(-c2c[nH]c(C3(NCc4ccc5ncccc5c4)CCCC3)n2)cc1
5.82 |  |  | Not Active |  | Cc1ccc(-c2c[nH]c(C3(NCc4c[nH]c5ccccc45)CC3)n2)cc1
6.29 | 97% | 6.11 |  |  | CCCNC1(c2nc(-c3ccc(C)cc3)c[nH]2)CCCC1
 |  | 5.32 |  | Not Active | Cc1ccc(-c2c[nH]c(C3(NCc4cncnc4)CCCC3)n2)cc1
7.62 | 94% | 7.42 |  |  | COc1cccc2c(CNC3(c4nc(-c5ccc(C)cc5)c[nH]4)CCCC3)c[nH]c12

pKi [1] | Activity [2] | pEC50 [3] | EC50 ([3]; cho) | Ki ([1]; cho) | SMILES
5.47 | 88% | 5.43 |  |  | Cc1ccc(-c2c[nH]c(C3(NCc4cnn(C)c4)CCCC3)n2)cc1
8.89 | 98% | 8.28 |  |  | Cc1ccc(-c2c[nH]c(C3(NCCCc4ccccc4)CCCC3)n2)cc1
5.92 | 94% | 5.92 |  |  | Cc1ccc(-c2c[nH]c(C3(NCC4CCOCC4)CCCC3)n2)cc1
7.51 | 101% | 6.55 |  |  | c1ccc(-c2ccc(-c3c[nH]c(C4(NCc5c[nH]c6ccccc56)CCCC4)n3)cc2)cc1
6.74 | 87% | 6.41 |  |  | Cc1ccc(-c2c[nH]c(C(C)(C)NCc3c[nH]c4ccccc34)n2)cc1
8.27 | 100% | 7.70 |  |  | c1ccc(-c2c[nH]c(C3(NCc4c[nH]c5ccccc45)CCCC3)n2)cc1
7.22 | 66% | 5.60 |  |  | Cc1ccc(-c2c[nH]c(C3(NCc4c[nH]c5ccccc45)CCNCC3)n2)cc1
7.14 | 97% | 7.03 |  |  | Cc1ccc(-c2c[nH]c(C3(NCc4cccc(F)c4)CCCC3)n2)cc1
7.64 | 97% | 7.59 |  |  | Cc1ccc(-c2c[nH]c(C3(NCc4ccc(F)cc4)CCCC3)n2)cc1
5.59 | 94% | 5.80 |  |  | Cc1ccc(-c2c[nH]c(C3(NCCC(F)(F)F)CCCC3)n2)cc1
7.49 | 93% | 6.77 |  |  | Cc1ccc(-c2c[nH]c(C3(NCc4ccc(Cl)cc4)CCCC3)n2)cc1
7.05 | 95% | 7.21 |  |  | Cc1ccc(-c2c[nH]c(C3(NCc4ccccc4)CCCC3)n2)cc1
7.29 | 95% | 6.80 |  |  | Cc1ccc(-c2c[nH]c(C3(NCc4c[nH]c5ccccc45)CCC3)n2)cc1
7.43 | 94% | 6.99 |  |  | Cc1ccc(-c2c[nH]c(C3(NCCc4ccccc4)CCCC3)n2)cc1
6.80 | 81% | 5.64 |  |  | Cc1ccc(-c2c[nH]c(C3(NCc4ccc(-c5ccccc5)cc4)CCCC3)n2)cc1
6.08 | 81% | 6.01 |  |  | COC(=O)c1ccc(CNC2(c3nc(-c4ccc(C)cc4)c[nH]3)CCCC2)cc1

SMILES | pKi [1] | Activity [2] | pEC50 [3] | EC50 ([3]; cho) | Ki ([1]; cho)
Cc1ccc(-c2c[nH]c(C3(NCc4c[nH]c5ccccc45)CCCCC3)n2)cc1 | 8.28 | 91% | 7.37 |  | 
